Tested on: diarrhea-predominant IBS subjects
Test: 3007 Study: open-label 52-week safety study, adverse events and withdrawals
Settings: Overall

Cc1nccn1C[C@H]1CCc2c(c3cccc4c3n2CCC4)C1=O [cilansetron, (R)-(−)-4,5,6,8,9,10-hexahydro-10-[(2-methyl-1H-imidazol-1-yl)methyl]-11H-pyrido-[3,2,1-jk]-carbazol-11-one]
3 (2%) n (%): TEAE: Prostate and Seminal Vesicles Infections and Inflammations* | TEAE: Prostatitis*
64 (12%) n (%): TEAE: Nervous System Disorders
46 (9%) n (%): TEAE: Respiratory, Thoracic and Mediastinal Disorders
8 (1%) n (%): TEAE: Muscle Strain | TEAE: Nasal Congestion and Inflammations | TEAE: Non-Site Specific Procedural Complications | TEAE: Rashes, Eruptions and Exanthems NEC | TEAE: Rectal Haemorrhage
1 (<1%) n (%): TEAE: Memory Loss (Excl Dementia) | TEAE: Meniere's Disease | TEAE: Menstruation Irregular* | TEAE: Menstruation with Decreased Bleeding* | TEAE: Mental Disorders NEC | TEAE: Mental Status Changes | TEAE: Middle Ear Disorders NEC | TEAE: Motion Sickness | TEAE: Movement Disorder NOS | TEAE: Muscle Infections and Inflammations | TEAE: Muscle Spasms | TEAE: Muscle Tone Abnormalities | TEAE: Musculoskeletal Chest Pain | TEAE: Musculoskeletal and Soft Tissue Imaging Procedures | TEAE: Myasthenia Gravis | TEAE: Mycoplasma Infections | TEAE: Myeloradiculopathy | TEAE: Myocardial Infarction | TEAE: Myositis | TEAE: Nail Infection NOS | TEAE: Nail and Nail Bed Conditions (Excl Infections and Infestations) | TEAE: Neck Pain | TEAE: Neuromuscular Junction Dysfunction | TEAE: Night Cramps | TEAE: Non-Accidental Overdose | TEAE: Normal Pregnancy, Labour and Delivery* | TEAE: Ocular Disorders NEC | TEAE: Oedema NOS | TEAE: Osteopenia | TEAE: Otitis Media NOS | TEAE: Ovarian Cancer NOS* | TEAE: Ovarian Cystadenofibroma* | TEAE: Ovarian Neoplasms Benign* | TEAE: Ovarian Neoplasms Malignant (Excl Germ Cell)* | TEAE: Overdoses | TEAE: Panic Attack | TEAE: Panic Symptoms | TEAE: Papulosquamous Conditions | TEAE: Paranasal Sinus Hypersecretion | TEAE: Parkinson's Disease NOS | TEAE: Parkinson's Disease and Parkinsonism | TEAE: Partial Vision Loss | TEAE: Penile Disorders NEC (Excl Erection and Ejaculation)* | TEAE: Penile Haemorrhage* | TEAE: Perception Disturbances | TEAE: Periorbital Haematoma | TEAE: Peripheral Embolism NOS | TEAE: Peripheral Embolism and Thrombosis | TEAE: Peripheral Swelling | TEAE: Pneumonia Mycoplasmal | TEAE: Polydipsia | TEAE: Polyuria | TEAE: Popliteal Bursitis | TEAE: Posterior Capsule Opacification | TEAE: Postnasal Drip | TEAE: Pregnancy NOS* | TEAE: Pregnancy, Puerperium and Perinatal Conditions | TEAE: Premenopause* | TEAE: Premenstrual Syndrome* | TEAE: Productive Cough | TEAE: Proteinuria | TEAE: Pruritus Ani | TEAE: Psoriasis | TEAE: Psychotic Disorder NEC | TEAE: Psychotic Disorder NOS | TEAE: Rectal Cramps | TEAE: Rectal Disorder NOS | TEAE: Red Blood Cell Analyses | TEAE: Red Blood Cells Urine | TEAE: Refractive Errors NOS | TEAE: Refractive and Accommodative Disorders | TEAE: Renal Bruit | TEAE: Reproductive Organ and Breast Histopathology Procedures | TEAE: Respiratory Tract Infection NOS | TEAE: Retinal Detachment | TEAE: Retinal Structural Change, Deposit and Degeneration | TEAE: Rheumatoid Arthritis | TEAE: Rheumatoid Arthritis Aggravated | TEAE: Rhinitis Seasonal | TEAE: Rib Fracture | TEAE: Road Traffic Accident | TEAE: Rosacea | TEAE: Rosaceas | TEAE: Rotator Cuff Syndrome | TEAE: Seizures and Seizure Disorders NEC
87 (16%) n (%): TEAE: Musculoskeletal and Connective Tissue Disorders
17 (3%) n (%): TEAE: Renal and Urinary Disorders
32 (6%) n (%): TEAE: Psychiatric Disorders
12 (2%) n (%): TEAE: Pain and Discomfort NEC
21 (4%) n (%): TEAE: Metabolism and Nutrition Disorders
15 (3%) n (%): TEAE: Neoplasms Benign, Malignant and Unspecified (Incl Cysts and Polyps)
33 (6%) n (%): TEAE: Musculoskeletal and Connective Tissue Signs and Symptoms NEC | TEAE: Nausea and Vomiting Symptoms
6 (1%) n (%): TEAE: Metabolism Tests NEC | TEAE: Neurological Signs and Symptoms NEC | TEAE: Oedema Peripheral | TEAE: Pain in Limb | TEAE: Pharyngitis | TEAE: Post Procedural Pain | TEAE: Rash NOS
9 (2%) n (%): TEAE: Paranasal Sinus Disorders (Excl Infections and Neoplasms) | TEAE: Physical Examination Procedures
10 (2%) n (%): TEAE: Muscle Cramps | TEAE: Muscle, Tendon and Ligament Injuries
2 (<1%) n (%): TEAE: Menorrhagia* | TEAE: Menstruation and Uterine Bleeding NEC* | TEAE: Mineral and Electrolyte Analyses | TEAE: Monoarthritis | TEAE: Monocyte Count Decreased | TEAE: Monocyte Count Increased | TEAE: Myalgia | TEAE: Nail Fungal Infection NOS | TEAE: Neoplasms Benign Site Unspecified NEC | TEAE: Nitrite Urine Present | TEAE: Ocular Nerve and Muscle Disorders | TEAE: Ophthalmic Function Diagnostic Procedures | TEAE: Oral Dryness and Saliva Altered | TEAE: Paraesthesias and Dysaesthesias | TEAE: Pelvic Pain NOS | TEAE: Peripheral Vascular Disorders NEC | TEAE: Pneumonia NOS | TEAE: Post Procedural Discomfort | TEAE: Purine Metabolism Disorders NEC | TEAE: Rash Macular | TEAE: Rectal Tenesmus | TEAE: Respiratory Tract Congestion | TEAE: Respiratory Tract Disorders NEC | TEAE: Rheumatoid Arthropathies
28 (5%) n (%): TEAE: Nasopharyngitis | TEAE: Rhinoviral Infections
4 (<1%) n (%): TEAE: Osteoarthropathies | TEAE: Palpitations | TEAE: Plantar Fasciitis | TEAE: Proctalgia | TEAE: Pruritus NEC | TEAE: Pruritus NOS | TEAE: Rate and Rhythm Disorders NEC | TEAE: Renal Function Analyses | TEAE: Rhinitis Allergic NOS
25 (5%) n (%): TEAE: Nausea
11 (2%) n (%): TEAE: Muscle Related Signs and Symptoms NEC | TEAE: Non-Site Specific Injuries NEC
7 (1%) n (%): TEAE: Oedema NEC | TEAE: Pharyngitis Streptococcal
24 (4%) n (%): TEAE: Reproductive System and Breast Disorders
5 (<1%) n (%): TEAE: Migraine Headaches | TEAE: Migraine NOS | TEAE: Seasonal Allergy
3 (<1%) n (%): TEAE: Menstruation with Increased Bleeding* | TEAE: Metabolic Bone Disorders | TEAE: Mononeuropathies | TEAE: Muscle Pains | TEAE: Neutrophil Count Decreased | TEAE: Osteoarthritis Aggravated | TEAE: Osteoporosis NOS | TEAE: Pain NOS | TEAE: Protein Urine Present | TEAE: Pyrexia | TEAE: Renal Lithiasis | TEAE: Reproductive Tract Signs and Symptoms NEC | TEAE: Rhinitis NOS
